Key:
[1] = tested on: E. cloacae expressing the Class C P99; assay: Broth microdilution MIC assay with ceftazidime, E. cloacae P99; type: cell-based; conditions: Fixed CAZ (ceftazidime) 4 μg/mL; E. cl. 144200 p99 AmpC
Source text: (§1) To determine the ability of test compounds to potentiate the inhibition of the growth of bacterial strains that produce beta-lactamase enzymes in the presence of a β-lactam antibiotic, classic cell based broth microdilution MIC assays were employed. Six bacteria strains producing beta-lactamase enzymes were used: E. coli expressing the Class A Extended Spectrum Beta-Lactamase (ESBL) CTX-M-15, E. cloacae expressing the Class C P99, K. pneumoniae expressing the Class A carbapenemase KPC-2, P. aeruginosa expressing the Class B carbapenemase VIM-2, K. pneumoniae expressing the class A carbapenemase KPC-2 and the class B carbapenemase VIM-4, and K. pneumoniae producing the Class D carbapenemase OXA-48. The assay was conducted in Cation Adjusted Mueller Hinton Broth (CAMHB, BD #212322, BD Diagnostic Systems, Sparks, Md.). Bacteria strains were grown for 3-5 hours in CAMBH broth. Test compounds (Examples 1-94) were added to a microtiter plate in 2-fold serial dilutions in CAMHB in a final concentration range of 16 μg/mL to 0.125 μg/ml. An overlay of CAMHB containing a Beta-lactam was added to the compounds at a final static concentration of 4 μg/ml. […] In addition to the titration of test compounds the MICs of a panel of control beta-lactams is also tested to ensure the strains are behaving consistently from test to test. Once the test compound and antibiotics are added the plates can be inoculated according to CLSI broth microdilution method. After inoculation the plates are incubated for 16-20 hours at 37° C. then the Minimal Inhibitory Concentration (MIC) of the test compound is determined visually.
(§2) Using the methodology described above, examples of the current invention were evaluated for their ability to inhibit the growth of β-lactamase-producing bacteria in the presence of a β-lactam antibiotic.

VIM-2 = molecular target: T1, VIM-2 (Escherichia coli, UniProt Q5U7L7); assay: β-lactamase enzyme inhibition assay, VIM-2 (nitrocefin substrate); type: biochemical; conditions: Class B; nitrocefin substrate, 486 nm; read-out: VIM-2
T1 construct: made in house; host or cells: E. coli BL21(DE3)
Experimental: For Vim-2 metallo β-lactamase, the procedure was identical with the following exceptions, first the protein was not pH adjusted to pH 5 with 50 mM sodium acetate, second, the chromatography step was changed to a 5 ml Q sepharose anion exchange column pre-equilibrated with 50 mM Hepes pH 7.5, and elution of the protein was achieved by a linear gradient of NaCl (0-600 mM). Finally, the VIM-2 purification required a second run (3rd step) on the Q sepharose anion exchange column to achieve acceptable purity (>90%).
(§3) An equal volume of diluted enzyme stock was added, and the plates were incubated at 37° C. for 15 min. Nitrocefin was used as substrate for p99 AmpC, VIM-2 and OXA-1 and dispensed into each well at a final concentration of 100 μM. Absorbance at 486 nm was immediately monitored for 10 min using a Biotek Powerwave XS2 microplate spectrophotometer using the GEN5 software package (Biotek Instruments, Winooski Vt.). In an analogous fashion, imipenem was used as substrate for Kpc-2 and Cefotaxime was used for SHV-5, while changes in absorbance upon hydrolysis of the β-lactam ring were monitored at 300 nm and 260 nm respectively in UV-transparent 96-well microtiter assay plates. Maximum rates of hydrolysis were compared to those in control wells (without inhibitors), and percentages of enzyme inhibition were calculated for each concentration of inhibitor. The concentration of inhibitor needed to reduce the initial rate of hydrolysis of substrate by 50% (IC50) was calculated as the residual activity of β-lactamase at 486 nm using GraFit version 7 kinetics software package (Erithacus Software, Surrey, UK).
(§4) Using the methodology described above, examples of the current invention were evaluated for their ability to inhibit β-lactamase enzymes from all four Ambler classifications (A through D). […] NT=Not tested.

SHV-5 = molecular target: T2, SHV-5 (Klebsiella pneumoniae, UniProt P0A3M1); assay: β-lactamase enzyme inhibition assay, SHV-5 (cefotaxime substrate); type: biochemical
T2 construct: made in house; host or cells: E. coli BL21(DE3)
T2 sequence (P0A3M1 22-286): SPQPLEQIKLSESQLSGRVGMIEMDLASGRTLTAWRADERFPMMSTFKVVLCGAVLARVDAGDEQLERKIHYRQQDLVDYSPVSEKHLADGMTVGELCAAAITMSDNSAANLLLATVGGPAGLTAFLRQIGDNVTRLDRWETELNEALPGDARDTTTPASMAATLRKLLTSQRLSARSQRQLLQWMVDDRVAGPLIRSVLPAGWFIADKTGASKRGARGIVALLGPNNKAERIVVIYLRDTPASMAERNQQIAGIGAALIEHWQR
Experimental: (§5) For SHV-5, Kpc-2, p99AmpC and OXA-1 β-lactamases, E. coli BL21(DE3) bacterial cells carrying expression plasmids (expressed as native untagged proteins) for the individual β-lactamases were grown in 1 L of Superbroth (Teknova Inc. Hollister, Calif.) supplemented with 100 μg/ml kanamycin selection and 1×5052 (0.5% glycerol, 0.05% glucose and 0.2% α-lactose) at 35° C. for 18-20 hours. Cells were harvested by centrifugation (4,000×g, 4° C., 20 min), resuspended in 50 ml of 10 mM HEPES pH 7.5 ( 1/20 of the initial volume). The cells were lysed by sonication (5 pulses of 45 seconds) at 45 W on ice. The lysates were clarified by centrifugation at 10,000×g for 40 minutes at 4° C. Samples were diluted 5-fold in 50 mM sodium acetate pH 5.0, stored overnight at 4° C., after which they were centrifuged at 10,000×g for 30 minutes to clarify, and filtered through 0.45 μm filters. The samples were loaded onto a 5 ml Capto S sepharose cation exchange column (GE Healthcare) pre-equilibrated with 50 mM sodium acetate pH 5.0. The column was washed with 5 column volumes of 50 mM sodium acetate pH 5.0 to wash out unbound protein and a linear gradient of NaCl (0 to 500 mM) was used to elute the protein (over 16 CV) from the column. Fractions were assayed for β-lactamase activity using Centa (Calbiochem, Gibbstown, N.J.) or Nitrocefin (EMD Millipore chemicals, Darmstadt, Germany) as a reporter β-lactamase substrate for activity in the isolated fractions. Active fractions were pooled, concentrated and further purified by gel filtration chromatography on a Superdex 75 prep grade gel filtration column (GE Healthcare, Piscataway, N.J.) pre-equilibrated in 50 mM Hepes pH 7.5, 150 mM NaCl. Active fractions were pooled concentrated, quantitated by BCA protein determination (Thermo Scientific, Rockford, Ill.), dialyzed into PBS and frozen at −80° C. in 20% glycerol until use.
as §3, §4

OXA-48 = OXA-48 (UniProt Q6XEC0); assay: β-lactamase enzyme inhibition assay, Class D oxacillinase; type: biochemical; conditions: read-out: OXA-48
[2] = tested on: K. pneumoniae expressing the Class A carbapenemase KPC-2; assay: Broth microdilution MIC assay with meropenem, K. pneumoniae KPC-2; type: cell-based; conditions: Fixed Mero (meropenem) 4 μg/mL; K. p. 156319 KPC-3
Source text: as §1, §2

KPC-2 = molecular target: T3, KPC-2 (Klebsiella pneumoniae, UniProt Q9F663); assay: β-lactamase enzyme inhibition assay, KPC-2 (imipenem substrate); type: biochemical; conditions: Class A; imipenem substrate, 300 nm; read-out: KPC-2
T3 construct: made in house; host or cells: E. coli BL21(DE3)
T3 sequence (Q9F663 25-293, looked up): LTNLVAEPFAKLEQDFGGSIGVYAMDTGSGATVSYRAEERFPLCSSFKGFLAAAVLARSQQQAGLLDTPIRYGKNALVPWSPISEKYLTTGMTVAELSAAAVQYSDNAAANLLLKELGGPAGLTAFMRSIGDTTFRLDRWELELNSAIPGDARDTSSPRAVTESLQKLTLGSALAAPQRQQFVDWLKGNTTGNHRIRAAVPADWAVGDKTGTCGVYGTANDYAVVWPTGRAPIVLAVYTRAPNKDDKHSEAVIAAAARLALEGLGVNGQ
Experimental: as §5, §3, §4

[3] = tested on: K. pneumoniae producing the Class D carbapenemase OXA-48; assay: Broth microdilution MIC assay with meropenem, K. pneumoniae OXA-48; type: cell-based; conditions: Fixed Mero (meropenem) 4 μg/mL; K. p. 11978 OXA-48
Source text: as §1, §2

[4] = tested on: E. coli expressing the Class A Extended Spectrum Beta-Lactamase (ESBL) CTX-M-15; assay: Broth microdilution MIC assay with ceftazidime, E. coli CTX-M-15; type: cell-based; conditions: Fixed CAZ (ceftazidime) 4 μg/mL; E. coli ESBL4 CTX-M-15
Source text: as §1, §2

AmpC = molecular target: T4, AmpC (Enterobacter cloacae, UniProt P05364); assay: β-lactamase enzyme inhibition assay, p99 AmpC (nitrocefin substrate); type: biochemical
T4 construct: made in house; host or cells: E. coli BL21(DE3)
T4 sequence (P05364 21-381): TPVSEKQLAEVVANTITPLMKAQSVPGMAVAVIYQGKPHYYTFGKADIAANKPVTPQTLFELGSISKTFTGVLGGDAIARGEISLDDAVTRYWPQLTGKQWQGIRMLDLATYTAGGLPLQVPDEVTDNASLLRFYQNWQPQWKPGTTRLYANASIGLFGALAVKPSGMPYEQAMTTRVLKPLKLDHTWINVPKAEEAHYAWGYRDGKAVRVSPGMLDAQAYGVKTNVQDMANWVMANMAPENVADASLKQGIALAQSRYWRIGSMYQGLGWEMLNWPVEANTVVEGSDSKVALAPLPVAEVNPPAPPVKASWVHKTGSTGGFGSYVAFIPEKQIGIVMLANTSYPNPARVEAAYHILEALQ
Experimental: as §5, §3, §4

[5] = tested on: K. pneumoniae expressing the class A carbapenemase KPC-2 and the class B carbapenemase VIM-4; assay: Broth microdilution MIC assay with meropenem, K. pneumoniae KPC-2 and VIM-4; type: cell-based; conditions: Fixed Mero (meropenem) 4 μg/mL; K. p. A-1797 KPC-2 VIM-4
Source text: as §1, §2

[6] = tested on: P. aeruginosa expressing the Class B carbapenemase VIM-2; assay: Broth microdilution MIC assay with meropenem, P. aeruginosa VIM-2; type: cell-based; conditions: Fixed Mero (meropenem) 4 μg/mL; P. aerug. 2775 VIM-2
Source text: as §1, §2

## Cc1nnn(CC(=O)N[C@H]2Cc3cccc(C(=O)O)c3OB2O)c1CN [Example 120, (R)-3-(2-(5-(aminomethyl)-4-methyl-1H-1,2,3-triazol-1-yl)acetamido)-2-hydroxy-3,4-dihydro-2H-benzo[e][1,2]oxaborinine-8-carboxylic acid]
[1]
  MIC (μg/mL) of Exemplary Compounds in presence of fixed β-lactams: E. cl. 144200 p99 AmpC: C (C represents an MIC of <1 μg/mL)
VIM-2
  IC50: < 100 nM
SHV-5
  IC50: 100 to 1000 nM
OXA-48
  IC50: < 100 nM
[2]
  MIC (μg/mL) of Exemplary Compounds in presence of fixed β-lactams: K. p. 156319 KPC-3: B (B represents an MIC between 1 and 16 μg/mL inclusive)
KPC-2
  IC50: < 100 nM
[3]
  MIC (μg/mL) of Exemplary Compounds in presence of fixed β-lactams: K. p. 11978 OXA-48: B (B represents an MIC between 1 and 16 μg/mL inclusive)
[4]
  MIC (μg/mL) of Exemplary Compounds in presence of fixed β-lactams: E. coli ESBL4 CTX-M-15: C (C represents an MIC of <1 μg/mL)
AmpC
  IC50: < 100 nM
[5]
  MIC (μg/mL) of Exemplary Compounds in presence of fixed β-lactams: K. p. A-1797 KPC-2 VIM-4: B (B represents an MIC between 1 and 16 μg/mL inclusive)

## O=C(Cn1cc(-c2ccccn2)nn1)N[C@H]1Cc2cccc(C(=O)O)c2OB1O [Example 10, (R)-2-hydroxy-3-(2-(4-(pyridin-2-yl)-1H-1,2,3-triazol-1-yl)acetamido)-3,4-dihydro-2H-benzo[e][1,2]oxaborinine-8-carboxylic acid]
[1]
  MIC (μg/mL) of Exemplary Compounds in presence of fixed β-lactams: E. cl. 144200 p99 AmpC: C (C represents an MIC of <1 μg/mL)
VIM-2
  IC50: 1000 to 10000 nM
SHV-5
  IC50: < 100 nM
OXA-48
  IC50: < 100 nM
[2]
  MIC (μg/mL) of Exemplary Compounds in presence of fixed β-lactams: K. p. 156319 KPC-3: B (B represents an MIC between 1 and 16 μg/mL inclusive)
KPC-2
  IC50: < 100 nM
[3]
  MIC (μg/mL) of Exemplary Compounds in presence of fixed β-lactams: K. p. 11978 OXA-48: B (B represents an MIC between 1 and 16 μg/mL inclusive)
[4]
  MIC (μg/mL) of Exemplary Compounds in presence of fixed β-lactams: E. coli ESBL4 CTX-M-15: C (C represents an MIC of <1 μg/mL)
AmpC
  IC50: < 100 nM
[5]
  MIC (μg/mL) of Exemplary Compounds in presence of fixed β-lactams: K. p. A-1797 KPC-2 VIM-4: A (A represents an MIC>16 μg/mL)

## NCc1nnnn1CC(=O)N[C@H]1Cc2cccc(C(=O)O)c2OB1O [Example 17, (R)-3-(2-(5-(aminomethyl)-1H-tetrazol-1-yl)acetamido)-2-hydroxy-3,4-dihydro-2H-benzo[e][1,2]oxaborinine-8-carboxylic acid]
[1]
  MIC (μg/mL) of Exemplary Compounds in presence of fixed β-lactams: E. cl. 144200 p99 AmpC: C (C represents an MIC of <1 μg/mL)
VIM-2
  IC50: < 100 nM
[6]
  MIC (μg/mL) of Exemplary Compounds in presence of fixed β-lactams: P. aerug. 2775 VIM-2: C (C represents an MIC of <1 μg/mL)
OXA-48
  IC50: 100 to 1000 nM
[2]
  MIC (μg/mL) of Exemplary Compounds in presence of fixed β-lactams: K. p. 156319 KPC-3: B (B represents an MIC between 1 and 16 μg/mL inclusive)
KPC-2
  IC50: < 100 nM
[3]
  MIC (μg/mL) of Exemplary Compounds in presence of fixed β-lactams: K. p. 11978 OXA-48: B (B represents an MIC between 1 and 16 μg/mL inclusive)
[4]
  MIC (μg/mL) of Exemplary Compounds in presence of fixed β-lactams: E. coli ESBL4 CTX-M-15: C (C represents an MIC of <1 μg/mL)
[5]
  MIC (μg/mL) of Exemplary Compounds in presence of fixed β-lactams: K. p. A-1797 KPC-2 VIM-4: B (B represents an MIC between 1 and 16 μg/mL inclusive)

## O=C(Cn1cncn1)N[C@H]1Cc2cccc(C(=O)O)c2OB1O [Example 18, (R)-3-(2-(1H-1,2,4-triazol-1-yl)acetamido)-2-hydroxy-3,4-dihydro-2H-benzo[e][1,2]oxaborinine-8-carboxylic acid]
[1]
  MIC (μg/mL) of Exemplary Compounds in presence of fixed β-lactams: E. cl. 144200 p99 AmpC: C (C represents an MIC of <1 μg/mL)
VIM-2
  IC50: 100 to 1000 nM
[6]
  MIC (μg/mL) of Exemplary Compounds in presence of fixed β-lactams: P. aerug. 2775 VIM-2: B (B represents an MIC between 1 and 16 μg/mL inclusive)
OXA-48
  IC50: 1000 to 10000 nM
[2]
  MIC (μg/mL) of Exemplary Compounds in presence of fixed β-lactams: K. p. 156319 KPC-3: C (C represents an MIC of <1 μg/mL)
KPC-2
  IC50: < 100 nM
[3]
  MIC (μg/mL) of Exemplary Compounds in presence of fixed β-lactams: K. p. 11978 OXA-48: B (B represents an MIC between 1 and 16 μg/mL inclusive)
[4]
  MIC (μg/mL) of Exemplary Compounds in presence of fixed β-lactams: E. coli ESBL4 CTX-M-15: C (C represents an MIC of <1 μg/mL)
[5]
  MIC (μg/mL) of Exemplary Compounds in presence of fixed β-lactams: K. p. A-1797 KPC-2 VIM-4: B (B represents an MIC between 1 and 16 μg/mL inclusive)

From patent publication US11046716B2, “Beta-lactamase inhibitors” (priority 2015, dated 2021)
